The record followed here is a melting point compilation (Tetko et al.; mined from patent text by program, amines drawn as free bases though some values may be those of a salt).

What is called melting point is the temperature, or range, at which the solid turns liquid. `O=C(N1CCC(n2ccc3ccccc32)CC1)C(F)(F)F` displayed a melting point of 130 to 132 °C.
For `CC(C)(C)OC(=O)CN(C(=O)CN1C(=O)c2ccccc2C1=O)c1ccccc1F` the value was 140 °C; for `N#Cc1ccc(C(=O)C=Cc2ccccc2)cc1`, 120 °C; for `O=c1c(Cl)c(Cl)cnn1-c1ccc(Cl)cc1F`, 158 °C.
In the case of `Cc1cc(-c2ccc(S(C)=O)cc2)n(-c2ccc(S(N)(=O)=O)cc2)c1` (stereo not drawn), the melting point lay in the range of 222 to 226 °C.
Regarding `CCOC(=O)c1ccc(NC2(C#N)CCCCC2)cc1`, the melting point lay within 101 to 102 °C.
The compound `O=C(O)Cc1c(C(=O)O)c2cc(Oc3ccc(Cl)c(Cl)c3)ccc2n1-c1ccc(OCC(F)(F)F)cc1` gave a melting point of 205 to 210 °C.
For the compound `COc1ccc(C(=O)Nc2ccccc2)cc1Nc1cccc(C(F)(F)F)c1`, the melting point lay within 183 to 184 °C.
Take `C=Cc1c(C)c2c(c(O)c1C/C=C1\CCCC1CC(=O)O)C(=O)OC2` (stereo not drawn): the melting point is 141 to 142 °C.
Consider `CCc1ccc(N2CCN(Cc3c[nH]c4ncccc34)CC2)cc1`, for which the melting point lay within 216 to 217 °C.
For `C=CCN(CC=C)c1nc(NC(=O)Cc2ccsc2)n2oc(=O)nc2n1` the value was 159 to 161 °C; for `O=c1[nH]c(-n2cccn2)nc2ccccc12`, 148 to 150 °C; for `COc1cccc(COc2ncc(F)c(NN)n2)c1`, 103 to 106 °C.
For the compound `CCOc1cc(C(O)CS(C)(=O)=O)cc(OCC)c1N` (stereo not drawn), the melting point lay within 166 to 168 °C.
On to `COc1cc(C2C3=C(COC3=O)N(c3cc(OC)c(OC)c(OC)c3)c3cc4c(cc32)OCO4)cc(OC)c1OC` (stereo not drawn), for which the melting point was > 260 °C.
With `CC(C)c1ccc(C(=O)C(c2ccccc2)C2CCCC2)c(C(C)C)c1OS(N)(=O)=O` (stereo not drawn), the melting point lay in the range of 142 to 143 °C.
Take `CC(C)CCCC(C)CCCC(C)CCCC(C)(O)C(CO)NCCO` (stereo not drawn): the melting point was in the range of 49.1 to 50.2 °C.
On to `CC(C)C(C(=O)O)c1ccc(Cl)cc1` (stereo not drawn), for which the melting point was 88 to 89 °C.
Regarding `CCNC(=O)c1sc(C)c(C)c1[Si](C)(C)C`, the melting point lay in the range of 77 to 80 °C.
`CC(=O)C(C)Nc1c(C)cc(C)c2nsnc12` (stereo not drawn): the melting point is 209 to 211 °C.
In turn, `CC(C#Cc1cccc(C=Cc2ccccn2)c1)N(O)C(N)=O` (stereo not drawn) displayed a melting point of 122 to 126 °C.
On to `CCN1C(=O)C(C)(C)C(=O)N(C)c2cc(CN(CCn3ccc4oc(C)cc4c3=O)Cc3ccc4c(c3)OCO4)ccc21`, for which the melting point lay in the range of 180 to 182 °C.
Consider `O=C(Nc1cccc(NC(=O)C(F)(F)F)c1)Nc1ccc(Cl)c(Cl)c1`, for which the melting point lay in the range of 221 to 223 °C.
As to `Clc1ccc(N2CC(c3ccccc3)=C(c3ccccc3)C2)cc1`, the melting point was 158 °C.
In turn, `CC=CC=CCOC(=O)C1=C(C)NC(C)=C(C(=O)OC)C1c1cccc(C(F)(F)F)c1` (stereo not drawn) registered a melting point of 130 to 131 °C.
In the case of `COC(=O)CCCCCCC1=C(OC)C(=O)CC1=O`, the melting point stood at 103 °C.
Consider `CNC(=O)NS(=O)(=O)c1cc(CCNC(=O)c2cc(Cl)ccc2OC)ccc1-c1ccco1`, for which the melting point is 118 to 120 °C.
As to `Nc1ccc(Cl)cc1C(=O)C(F)(F)Cl`, the melting point lay within 55 to 56 °C.
For `Cc1ccc(C(=O)c2noc(CC#N)n2)cc1` the value was 76 to 78 °C.
`CN(C(CCn1c(=O)[nH]c2ccsc2c1=O)C(=O)NO)S(=O)(=O)c1ccc(Oc2cccc(Cl)c2)cc1` (stereo not drawn) gave a melting point of 192 to 194 °C.
`CCOC(=O)COc1ccc(CCNC(=O)C[C@H]2O[C@H](c3cccc(OC)c3OC)c3cc(Cl)ccc3N(CC(C)(C)CO)C2=O)cc1`: the melting point is 142 to 145 °C.
Turning to `COC(=O)c1ccc(CCN(C)c2cn([C@H]3CCc4c(F)cc(F)cc4C3)c(=S)[nH]2)cc1`, the melting point is 159 to 160 °C.
`CCn1nc(C(=O)OC(C)C)cc(Nc2cncc3ccccc23)c1=O` displayed a melting point of 192 to 193 °C.
For the compound `CCC(CC)c1nn(-c2ccc(C(F)(F)F)cn2)cc1CCCOc1c(C)cccc1CC(=O)O`, the melting point is 125 to 126 °C.
In the case of `CON(C)C(=O)Nc1ccc(OCc2nc(Cl)ccc2Cl)cc1`, the melting point was 152 to 154 °C.
For `NS(=O)(=O)c1ccc(-n2nc(C(F)F)cc2-c2nc3ccc(Cl)cc3s2)cc1` the value was 242 to 244 °C; for `O=S1(=O)N(CCCCBr)c2ccccc2N1c1ccc(Cl)cc1`, 65 to 68 °C; for `CN1C(=O)CCC2(C)c3ccc(S(=O)(=O)c4ccccc4)cc3CCC12` (single isomer, unassigned; (+)), 165 to 167 °C.
With `O=C(O)CCCCCN1C(=O)c2ccc(C(=O)O)cc2C1=O`, the melting point was 202 to 204 °C.
On to `CCOC(=O)c1cn2c3c(ccc(Cl)c3c1=O)OCC2C` (stereo not drawn), for which the melting point was 205 to 206 °C.
`CCOC(=O)c1cnn(-c2ccccn2)c1S(=O)(=O)NC(=O)Nc1nc(OC)cc(OC)n1` showed a melting point of 140 to 142 °C.
`Cc1c(C(=O)O)nc2c(=O)[nH]c3cc(S(C)(=O)=O)ccc3n12` returned a melting point of 228 °C.
In turn, `CCOC(=O)Cn1c2cccccc-2c(C#N)c1=O` returned a melting point of 149 to 151 °C.
Compound `c1ccc(N2CCN(CC[C@H]3CC[C@H](c4c[nH]c5ccccc54)CC3)CC2)nc1` came in with a melting point of 147 to 148 °C.
For `CC(=O)Oc1cc(-c2ccccc2)oc(=O)c1Sc1ccccc1C(C)C` the value was 113 to 115 °C; for `Cc1ccc2c(c1)Oc1ccc([N+](=O)[O-])cc1C(=O)N2C`, 156 to 159 °C; for `CC1(CO)C(=O)N(c2ccc(C#N)c(C(F)(F)F)c2)C(=O)N1CC#N` (stereo not drawn), 171 °C.
With `COc1cc(-c2nc(C)c(C(C)=NNC(N)=O)s2)cc(OC)c1OC`, the melting point was in the range of 240 to 242 °C.
For `CC(=O)Nc1ccc(OC(F)F)c(F)c1` the value was 112 to 113 °C; for `CNC(=O)CCC(O)c1ccccc1` (stereo not drawn), 67 to 69 °C; for `CC(=O)c1cc2c(cc1C=O)C(C)(C)CCC2(C)C`, 116 °C.
For `COCc1nc2c(N)nc3cc(CCS(C)(=O)=O)ccc3c2n1CC(C)(C)O` the value was 210 to 212 °C; for `COc1ccc2nc(NC(=O)c3nc4ccccc4[nH]3)sc2c1`, 246 °C; for `Cc1nc(N2CCN(Cc3ccc(F)cc3)C2=O)sc1C(=O)NCc1ccncn1`, 175 to 176 °C.
Take `COc1cc2ncc(C#N)c(Nc3cccc(F)c3)c2cc1OC`: the melting point fell in the range of 226 to 230 °C.
Regarding `Cc1c(-c2ccc(O)cc2)sc(C=O)c1-c1cccc(O)c1`, the melting point was in the range of 208 to 210 °C.
The compound `CCCc1c(OCCCSc2ccc3c(=O)cc(C(=O)O)[nH]c3c2CCC)ccc(C(C)=O)c1O` yielded a melting point of 192 to 194 °C.
With `NS(=O)(=O)c1ccc(NC(=O)CNc2ccccc2)cc1Cl`, the melting point was 192 to 194 °C.
As to `Clc1cc(Cl)cc(-c2nc(Cl)c3ccccc3n2)c1`, the melting point turned out to be 274 °C.
Take `Cc1ccc(CCC(=O)c2ccc(N3CCN(c4ccncc4)CC3)cc2)cc1`: the melting point fell in the range of 130 to 132 °C.
Compound `O=P(c1ccccc1)(c1ccccc1)c1cc(P(=O)(c2ccccc2)c2ccccc2)ncn1` showed a melting point of 213 to 215 °C.
For `O=C1CCC(C(=O)Nc2ccccc2C(=O)c2ccccc2)O1` (stereo not drawn) the value was 100 to 102 °C; for `CN(C(=O)C1CCC1)c1cccc(-c2ccnc3c(C(=O)c4ccco4)cnn23)c1`, 166 to 167 °C; for `CC(C)=CCCC(C)=CCOc1ccc(C(=O)NCC(=O)Nc2ccccn2)cc1`, 105 to 106 °C.
For `C=CCc1c(O)ccc2c(=O)cc(C(=O)OCC)oc12` the value was 164 to 165 °C; for `O=C(CF)CCCN1C(=O)c2ccccc2C1=O`, 92 °C; for `O=S(=O)(C1CC1)C(F)(F)C(O)(Cn1cncn1)c1ccc(F)cc1F` (stereo not drawn), 130 to 132 °C.
For the compound `CC(=O)NC1CCc2[nH]c3ccccc3c2C1` (stereo not drawn), the melting point was 170 °C.
`Nc1cccc(COc2cccc3c2CN(C2CCC(=O)NC2=O)C3=O)c1` (stereo not drawn) gave a melting point of 109 to 113 °C.
The compound `N#Cc1nn(-c2c(Cl)cc(Cl)cc2Cl)c(N)c1C#N` yielded a melting point of 267 to 271 °C.
`Cc1oc(-c2ccc(C(F)(F)F)cc2)nc1-c1cccc(-c2ccc(OCC(=O)O)cc2)c1` had a melting point of 178 to 179 °C.
`COC(COC(=O)C1=C(C)NC2=C(C(=O)CNC2)C1c1cccc(Cl)c1C)c1ccccc1` (stereo not drawn) returned a melting point of 160 to 163 °C.
The compound `CCCCCCCCOC(=O)CCc1cc(-n2nc3ccc(S(=O)(=O)c4ccccc4)cc3n2)c(O)c(C(C)(C)C)c1` yielded a melting point of 62 to 63 °C.
For the compound `CCNC(=O)Nc1nc2cc(-c3cccnc3)ccn2n1`, the melting point is 230 to 233 °C.
`CCCCNC(=O)NS(=O)(=O)C(C)=Cc1ccccc1` registered a melting point of 135 to 136 °C.
`CC1=NC(=NOC(=O)NC2CC2)SC1(C)C` showed a melting point of 86 to 89 °C.
As for `COc1cc(OC)c2nccc(Cl)c2c1`, the melting point was 115 to 116 °C.
`O=C1N=c2ccc(OCCN3CC=C(Cc4ccccc4)CC3)cc2=N1` showed a melting point of 202 to 203 °C.
For `CCCCCCCCCCc1ccc(CNc2ccc(C(=O)OCC)cc2)cc1` the value was 87 to 90 °C.
For `CCOc1nn(-c2ccc(C(F)(F)F)cn2)cc1CCCOc1cc(CCC(=O)O)n(C2CCCCC2)n1` the value was 89 to 90 °C.
Regarding `O=CNc1ccccc1CCc1ccccn1`, the melting point was in the range of 78 to 81 °C.
In the case of `N#Cc1c(N2CCc3ccccc3CC2)nc(NCC(F)(F)F)n(CC(F)(F)F)c1=O`, the melting point was > 200 °C.
`CCON=C(C)C(C)=NOc1ncccc1C(=NOC)C(=O)NC` returned a melting point of 110 °C.
For `Cc1ccc(C2CCN(C(=O)CCC(=O)c3ccc4c(c3)CCNCC4)CC2)cc1` the value was 115 to 116 °C; for `Cc1ccc(C2CCN(CCCCNC(=O)c3ccc(-c4ccc(C#N)cc4)cc3)CC2)c(O)c1`, 184 °C; for `CCn1cc(C(=O)O)c(=O)c2cc(F)c(N3CC4CCC3CN4)cc21` (stereo not drawn), 270 to 272 °C.
On to `CCOC(=O)C(C#N)(Cc1cc(OC)c(OC)c(OC)c1)C(OCC)OCC` (stereo not drawn), for which the melting point was in the range of 95 to 97 °C.
As for `N/C(=C1/Sc2ccccc2C1=O)c1ccccc1Cl`, the melting point lay within 167 to 168 °C.
